Assay results from patent US20260232767A1, “INTERLEUKIN-23 RECEPTOR ANTAGONIST PEPTIDES FOR USE IN THE TREATMENT OF PSORIASIS” (Janssen Pharmaceutica NV, priority 2023, published 2026).

System: subjects with moderate-to-severe plaque psoriasis
Experiment: Safety, adverse events, Example 2 through Week 56
Format: in vivo, human
Set-up: Participants experiencing 1 or more AEs: unit not given here
Source text: The LTE safety analysis was based on randomized participants in Example who entered the present long-term extension study and received at least one dose of study intervention (including a partial dose) during the study period.

[1] = Placebo → 100 mg QD, Week 16-56
[2] = Placebo → 100 mg QD, through Week 56
[3] = Week 16 through Week 56, dose group = column
[4] = combined group, long-term extension
[5] = number of subjects, through Week 56, 25 mg BID
[6] = number of subjects, through Week 56, 25 mg QD
[7] = number of subjects, through Week 56, 50 mg QD

## CC(=O)NCCCC[C@@H]1NC(=O)[C@H](Cc2c[nH]c3c(C)cccc23)NC(=O)[C@H]([C@@H](C)O)NC(=O)[C@H](CC(N)=O)NC(=O)[C@@H](NC(C)=O)C(C)(C)SSC(C)(C)[C@@H](C(=O)N[C@@H](Cc2ccc(OCCN)cc2)C(=O)N[C@@H](Cc2ccc3ccccc3c2)C(=O)NC2(C(=O)N[C@@H](CCC(=O)O)C(=O)N[C@@H](CC(N)=O)C(=O)N[C@@H](Cc3cccnc3)C(=O)N(C)CC(N)=O)CCOCC2)NC1=O [IL-23 receptor antagonist peptide, Ac-[Pen]*-N-T-[W(7-Me)]-[Lys(Ac)]-[Pen]*-Phe[4-(2-aminoethoxy)]-[2-Nal]-[THP]-E-N-[3-Pal]-Sarc-NH2 (*[Pen]-[Pen]* formdisulfidebond)]
Placebo → 100 mg QD, LTE Safety analysis set
  Subjects with serious adverse event: Ventricular dysfunction: 0
[1]
  Subjects with 1 or more treatment-emergent adverse events leading to discontinuation of study agent: 0
  Subjects with AE leading to discontinuation: Alanine aminotransferase increased: 0
  Subjects with AE leading to discontinuation: Aspartate aminotransferase increased: 0
  Subjects with AE leading to discontinuation: Asthenia: 0
  Subjects with AE leading to discontinuation: Chills: 0
  Subjects with AE leading to discontinuation: Ear and labyrinth disorders: 0
  Subjects with AE leading to discontinuation: Gamma-glutamyltransferase increased: 0
  Subjects with AE leading to discontinuation: Gastrointestinal disorders: 0
  Subjects with AE leading to discontinuation: General disorders and administration site conditions: 0
  Subjects with AE leading to discontinuation: Headache: 0
  Subjects with AE leading to discontinuation: Insomnia: 0
  Subjects with AE leading to discontinuation: Investigations: 0
  Subjects with AE leading to discontinuation: Nervous system disorders: 0
  Subjects with AE leading to discontinuation: Proctalgia: 0
  Subjects with AE leading to discontinuation: Psoriasis: 0
  Subjects with AE leading to discontinuation: Psychiatric disorders: 0
  Subjects with AE leading to discontinuation: Skin and subcutaneous tissue disorders: 0
  Subjects with AE leading to discontinuation: Vertigo: 0
  Subjects with AE leading to discontinuation: Vomiting: 0
  Subjects with treatment-emergent AE: Headache: 0
  Subjects with treatment-emergent AE: Meniscus injury: 0
  Subjects with treatment-emergent AE: Nasopharyngitis: 9
  Subjects with treatment-emergent AE: Sinusitis: 0
  Subjects with treatment-emergent AE: Vomiting: 0
  Subjects with treatment-emergent serious AE: Cardiac disorders: 0
  Subjects with treatment-emergent serious AE: Coronary artery disease: 0
  Subjects with treatment-emergent serious AE: Diverticulitis: 0
  Subjects with treatment-emergent serious AE: Foot deformity: 0
  Subjects with treatment-emergent serious AE: General disorders and administration site conditions: 0
  Subjects with treatment-emergent serious AE: Infections and infestations: 0
  Subjects with treatment-emergent serious AE: Injury, poisoning and procedural complications: 0
  Subjects with treatment-emergent serious AE: Intervertebral disc protrusion: 0
  Subjects with treatment-emergent serious AE: Ligament injury: 0
  Subjects with treatment-emergent serious AE: Musculoskeletal and connective tissue disorders: 0
  Subjects with treatment-emergent serious AE: Neoplasms benign, malignant and unspecified (incl cysts and polyps): 0
  Subjects with treatment-emergent serious AE: Non-cardiac chest pain: 0
  Subjects with treatment-emergent serious AE: Respiratory, thoracic and mediastinal disorders: 0
  Subjects with treatment-emergent serious AE: Tonsillar hypertrophy: 0
  Subjects with treatment-emergent serious AE: Uterine leiomyoma: 0
  Subjects with treatment-emergent serious AE: Ventricular dysfunction: 0
[2]
  Acrochordon: number of subjects: 0
  Actinic keratosis: number of subjects: 0
  Alopecia: number of subjects: 0
  Asthenia: number of subjects: 0
  Asthma: number of subjects: 0
  Atrioventricular block first degree: number of subjects: 0
  Basal cell carcinoma: number of subjects: 0
  Blood and lymphatic system disorders: number of subjects: 0
  Bronchitis chronic: number of subjects: 0
  Bundle branch block right: number of subjects: 0
  Cardiac disorders: number of subjects: 0
  Chills: number of subjects: 0
  Cholelithiasis: number of subjects: 0
  Chronic obstructive pulmonary disease: number of subjects: 0
  Coronary artery disease: number of subjects: 0
  Cough: number of subjects: 0
  Decreased appetite: number of subjects: 0
  Depression: number of subjects: 0
  Dermal cyst: number of subjects: 0
  Dermatitis acneiform: % of subjects: (2.9%)
  Dermatitis acneiform: number of subjects: 1
  Dermatitis contact: number of subjects: 0
  Diabetes mellitus: number of subjects: 0
  Diffuse alopecia: number of subjects: 0
  Dysuria: % of subjects: (2.9%)
  Dysuria: number of subjects: 1
  Ear and labyrinth disorders: number of subjects: 0
  Endocrine disorders: number of subjects: 0
  Eye disorders: % of subjects: (5.7%)
  Eye disorders: number of subjects: 2
  Eyelid skin dryness: number of subjects: 0
  Fatigue: number of subjects: 0
  General disorders and administration site conditions: number of subjects: 0
  Goiter: number of subjects: 0
  Haemochromatosis: % of subjects: (2.9%)
  Haemochromatosis: number of subjects: 1
  Hand dermatitis: % of subjects: (2.9%)
  Hand dermatitis: number of subjects: 1
  Hematuria: % of subjects: (2.9%)
  Hematuria: number of subjects: 1
  Hepatobiliary disorders: % of subjects: (2.9%)
  Hepatobiliary disorders: number of subjects: 1
  Hypercholesterolemia: number of subjects: 0
  Hyperglycemia: number of subjects: 0
  Hyperlipidemia: number of subjects: 0
  Hypertension: % of subjects: (2.9%)
  Hypertension: number of subjects: 1
  Hypertransaminasemia: % of subjects: (2.9%)
  Hypertransaminasemia: number of subjects: 1
  Hypertriglyceridemia: number of subjects: 0
  Hypoacusis: number of subjects: 0
  Immune system disorders: number of subjects: 0
  Influenza like illness: number of subjects: 0
  Insomnia: number of subjects: 0
  Intertrigo: number of subjects: 0
  Ketonuria: number of subjects: 0
  Leukocyturia: number of subjects: 0
  Leukopenia: number of subjects: 0
  Libido decreased: number of subjects: 0
  Liver disorder: number of subjects: 0
  Lymphopenia: number of subjects: 0
  Menopause: number of subjects: 0
  Metabolism and nutrition disorders: % of subjects: (2.9%)
  Metabolism and nutrition disorders: number of subjects: 1
  Neoplasms benign, malignant and unspecified (incl cysts and polyps): number of subjects: 0
  Nephrolithiasis: number of subjects: 0
  Neutropenia: number of subjects: 0
  Night sweats: number of subjects: 0
  Non-cardiac chest pain: number of subjects: 0
  Ocular cyst: % of subjects: (2.9%)
  Ocular cyst: number of subjects: 1
  Oedema peripheral: number of subjects: 0
  Oropharyngeal pain: % of subjects: (2.9%)
  Oropharyngeal pain: number of subjects: 1
  Procedural pain: number of subjects: 0
  Productive cough: number of subjects: 0
  Proteinuria: number of subjects: 0
  Pruritus: number of subjects: 0
  Psoriasis: number of subjects: 0
  Psychiatric disorders: number of subjects: 0
  Pyrexia: number of subjects: 0
  Rash pruritic: number of subjects: 0
  Renal and urinary disorders: % of subjects: (5.7%)
  Renal and urinary disorders: number of subjects: 2
  Renal mass: number of subjects: 0
  Respiratory, thoracic and mediastinal disorders: % of subjects: (2.9%)
  Respiratory, thoracic and mediastinal disorders: number of subjects: 1
  Retinal vein occlusion: % of subjects: (2.9%)
  Retinal vein occlusion: number of subjects: 1
  Rhinorrhoea: number of subjects: 0
  Seasonal allergy: number of subjects: 0
  Skin and subcutaneous tissue disorders: % of subjects: (5.7%)
  Skin and subcutaneous tissue disorders: number of subjects: 2
  Skin laceration: number of subjects: 0
  Skin papilloma: number of subjects: 0
  Social circumstances: number of subjects: 0
  Steatohepatitis: number of subjects: 0
  Suicide attempt: number of subjects: 0
  Sunburn: number of subjects: 0
  Thrombocytopenia: number of subjects: 0
  Thrombocytosis: number of subjects: 0
  Tonsillar hypertrophy: number of subjects: 0
  Tooth fracture: number of subjects: 0
  Type 2 diabetes mellitus: number of subjects: 0
  Urinary tract disorder: number of subjects: 0
  Uterine leiomyoma: number of subjects: 0
  Vascular disorders: % of subjects: (2.9%)
  Vascular disorders: number of subjects: 1
  Ventricular dysfunction: number of subjects: 0
  Vertigo: number of subjects: 0
  Vitamin D deficiency: number of subjects: 0
[3]
  Investigations (system organ class): % of subjects: (10.5%)
  Nasopharyngitis: % of subjects: (25.7%)
All groups, long-term extension
  Infections and infestations AEs: 41.9%
All treatment groups, long-term extension
  Tolerability: well-tolerated
[4]
  COVID-19: 5.3%
  Nasopharyngitis: 18.1%
  Participants experiencing 1 or more AEs: 58.600
  Upper respiratory tract infection: 9.7%
long-term extension
  Number of participants who discontinued study intervention due to one or more AEs: 4
  Participants with one or more serious adverse events: 4.0%
[5]
  Subjects with 1 or more Adverse events: 32
  Subjects with 1 or more Adverse events: Alanine aminotransferase increased: 1
  Subjects with 1 or more Adverse events: Arthralgia: 0
  Subjects with 1 or more Adverse events: Aspartate aminotransferase increased: 1
  Subjects with 1 or more Adverse events: Bronchitis: 2
  Subjects with 1 or more Adverse events: COVID-19: 9
  Subjects with 1 or more Adverse events: Cough: 0
  Subjects with 1 or more Adverse events: Diarrhea: 2
  Subjects with 1 or more Adverse events: Headache: 3
  Subjects with 1 or more Adverse events: Influenza: 3
  Subjects with 1 or more Adverse events: Nasopharyngitis: 8
  Subjects with 1 or more Adverse events: Upper respiratory tract infection: 3
  Subjects with 1 or more Adverse events: Urinary tract infection: 1
  Subjects with 1 or more Serious adverse events: 3
  Subjects with 1 or more Serious adverse events: COVID-19: 0
  Subjects with 1 or more Serious adverse events: Cerebrovascular accident: 0
  Subjects with 1 or more Serious adverse events: Coronary artery disease: 0
  Subjects with 1 or more Serious adverse events: Diverticulitis: 0
  Subjects with 1 or more Serious adverse events: Foot deformity: 0
  Subjects with 1 or more Serious adverse events: Infected cyst: 0
  Subjects with 1 or more Serious adverse events: Intervertebral disc protrusion: 0
  Subjects with 1 or more Serious adverse events: Ligament injury: 1
  Subjects with 1 or more Serious adverse events: Non-cardiac chest pain: 0
  Subjects with 1 or more Serious adverse events: Suicide attempt: 0
  Subjects with 1 or more Serious adverse events: Tonsillar hypertrophy: 1
  Subjects with 1 or more Serious adverse events: Uterine leiomyoma: 0
  Subjects with 1 or more Serious adverse events: Ventricular dysfunction: 1
  Subjects with 1 or more treatment-emergent adverse events leading to discontinuation of study agent: 2
[6]
  Subjects with 1 or more Adverse events: 24
  Subjects with 1 or more Adverse events: Alanine aminotransferase increased: 1
  Subjects with 1 or more Adverse events: Arthralgia: 1
  Subjects with 1 or more Adverse events: Aspartate aminotransferase increased: 1
  Subjects with 1 or more Adverse events: Bronchitis: 2
  Subjects with 1 or more Adverse events: COVID-19: 6
  Subjects with 1 or more Adverse events: Cough: 1
  Subjects with 1 or more Adverse events: Diarrhea: 2
  Subjects with 1 or more Adverse events: Headache: 2
  Subjects with 1 or more Adverse events: Influenza: 0
  Subjects with 1 or more Adverse events: Nasopharyngitis: 3
  Subjects with 1 or more Adverse events: Upper respiratory tract infection: 7
  Subjects with 1 or more Adverse events: Urinary tract infection: 2
  Subjects with 1 or more Serious adverse events: 0
  Subjects with 1 or more Serious adverse events: COVID-19: 0
  Subjects with 1 or more Serious adverse events: Cerebrovascular accident: 0
  Subjects with 1 or more Serious adverse events: Coronary artery disease: 0
  Subjects with 1 or more Serious adverse events: Diverticulitis: 0
  Subjects with 1 or more Serious adverse events: Foot deformity: 0
  Subjects with 1 or more Serious adverse events: Infected cyst: 0
  Subjects with 1 or more Serious adverse events: Intervertebral disc protrusion: 0
  Subjects with 1 or more Serious adverse events: Ligament injury: 0
  Subjects with 1 or more Serious adverse events: Non-cardiac chest pain: 0
  Subjects with 1 or more Serious adverse events: Suicide attempt: 0
  Subjects with 1 or more Serious adverse events: Tonsillar hypertrophy: 0
  Subjects with 1 or more Serious adverse events: Uterine leiomyoma: 0
  Subjects with 1 or more Serious adverse events: Ventricular dysfunction: 0
  Subjects with 1 or more treatment-emergent adverse events leading to discontinuation of study agent: 3
[7]
  Subjects with 1 or more Adverse events: 32
  Subjects with 1 or more Adverse events: Alanine aminotransferase increased: 1
  Subjects with 1 or more Adverse events: Arthralgia: 1
  Subjects with 1 or more Adverse events: Aspartate aminotransferase increased: 1
  Subjects with 1 or more Adverse events: Bronchitis: 4
  Subjects with 1 or more Adverse events: COVID-19: 6
  Subjects with 1 or more Adverse events: Cough: 2
  Subjects with 1 or more Adverse events: Diarrhea: 4
  Subjects with 1 or more Adverse events: Headache: 1
  Subjects with 1 or more Adverse events: Influenza: 1
  Subjects with 1 or more Adverse events: Nasopharyngitis: 13
  Subjects with 1 or more Adverse events: Upper respiratory tract infection: 3
  Subjects with 1 or more Adverse events: Urinary tract infection: 1
  Subjects with 1 or more Serious adverse events: 3
  Subjects with 1 or more Serious adverse events: COVID-19: 0
  Subjects with 1 or more Serious adverse events: Cerebrovascular accident: 0
  Subjects with 1 or more Serious adverse events: Coronary artery disease: 1
  Subjects with 1 or more Serious adverse events: Diverticulitis: 0
  Subjects with 1 or more Serious adverse events: Foot deformity: 1
  Subjects with 1 or more Serious adverse events: Infected cyst: 1
  Subjects with 1 or more Serious adverse events: Intervertebral disc protrusion: 0
  Subjects with 1 or more Serious adverse events: Ligament injury: 0
  Subjects with 1 or more Serious adverse events: Non-cardiac chest pain: 1
  Subjects with 1 or more Serious adverse events: Suicide attempt: 0
